Experimental findings from publication PMC6611794, “Development of a high-throughput strategy for discovery of potent analogues of antibiotic lysocin E” (Nature Communications, 2019) are described below.

“And” between values parts separate entries of the source, which are not always exact repeats. Equal entries are not always repeated. Where two headings read alike, the source gives them in different places. Where a SMILES comes first, the peptide text is derived from it. Bridges are numbered along the chain shown (N, C = ends). [ ]: non-standard residue; d: D form. The star is where a group is joined. Hexanoyl(3R-OH,5-Me) = CC(C)C[C@@H](O)CC(=O)*; dNMeF = CN[C@H](Cc1ccccc1)C(=O)O; dOrn = NCCC[C@@H](N)C(=O)O

The nature of test [1]: Liposomal membrane disruption assay (carboxyfluorescein LUVs). It is filed as biochemical. The method, then:
Preparation of LUVs consisting of PC/PG. Carboxyfluorescein-encapsulated large unilamellar vesicles (LUVs) were prepared according to the thin-film hydration method, followed by extrusion through Nuclepore polycarbonate filters (GE Healthcare) mounted in the mini-extruder apparatus (Avanti Polar Lipids). A solution of egg yolk phosphatidylcholine (9.60 mg, 12.5 µmol) and egg yolk phosphatidylglycerol (9.78 mg, 12.5 µmol) in CHCl3 (0.505 mL) was concentrated, and dried under vacuum to form a lipid thin film. The thin film was hydrated and suspended in carboxyfluorescein-containing buffer solution [0.500 mL, 5 mM 4-(2-hydroxyethyl)-1-piperazineethanesulfonic acid (HEPES), 20 mM carboxyfluorescein, pH 7.5] by vortexing and sonication. After five -times freeze-thaw cycles, the lipid suspension was extruded 19 times through a polycarbonate filter with 0.40 µm of pore size in the diameter. The external carboxyfluorescein -containing buffer was replaced w ith a carboxyfluorescein -free buffer solution [20 mM HEPES, 1 mM ethylenediaminetetraacetic acid (EDTA), pH 7.5] through size exclusion chromatography using disposable PD-10 column (GE Healthcare). Concentration of egg yolk phosphatidylcholine was determined by using Phospholipid C-Test Wako (Fujifilm Wako Pure Chemical). The final concentration of egg yolk phosphatidylcholine was adjusted to 4.0 µM with the carboxyfluorescein-free buffer solution, and the solution was used for membrane disruption assay. […]
Membrane disruption assay. […]
to various concentrations as 5-fold serial dilutions. The solution of peptides (2 µL/well) and the carboxyfluorescein-encapsulated LUV suspension (200 µL/well) were mixed in black polystyrene flat-bottom 96-well plates. The final concentration of peptides ranged from 2970 nM to 0.950 nM. The plates were vortexed at room temperature for 30 min, and then fluorescence of carboxyfluorescein (Ex. 490 nm/Em. 517 nm) of each well was measured at room temperature on Gemini EM microplate reader. Trion X-100/H2O (5/95, 2 µL), MeOH/H2O (4/6, 2 µL), and the LUV suspension were mixed in each plate to determine 100% lysis. MeOH/H2O (4/6, 2 µL) and the LUV suspension were mixed in each plate to determine 0% lysis.
The membrane disruption activities of tested peptides (I) were normalized against 100% lysis by Triton X -100 […]
(Imax) and 0% lysis by MeOH/H2O (4/6) (I0) as following, where Ix is the fluorescence intensity (Supplementary Equation 2).
I = 100 × (Ix – I0) / (Imax – I0) (2)
The membrane-disrupting activities were evaluated as half-maximal response (EC50, nM) values by means of three replicates. Sigmoidal curve fittings were performed on R2 with drc package (Supplementary Figs S7–S9).3 Two-parameter logistic model was applied for the fitting.

Test [2] is described as follows: On-bead menaquinone complexation assay (fluorescence of 2H). The format is binding. To be noted: single library bead (hit beads >1000 a.u.), average of three readings. Here is the method: Next, the feasibility of the on-bead complexation assay was assessed using bead-linked lysocin E 30 and MK-4 (2). Our initial assay based on the finding that 1 and 2 form a red precipitate upon complexation (Supplementary Fig. 2) was not robust, because the magnitude of the red color was not proportional to the amount of captured 2 (Fig. 2b, c). We therefore developed a fluorescence-based method for quantifying 2 by reducing its naphthoquinone moiety to fluorescent hydroquinone 2H. One bead of 30 was incubated with 2 in MeOH, washed by MeOH in a microplate well, and then the bead-bound 2 was eluted under more forcing hydrophobic conditions (n-BuOH at 50 °C). The eluate containing 2 was treated with NaBH4 in n-BuOH to produce 2H[46]. The fluorescence intensity of 2H was evaluated to determine the quantity of 2 bound to one bead of 30. The method was found with a small margin of error (1026 ± 64 a.u.), indicating its high accuracy (Fig. 2a and Supplementary Fig. 3). Importantly, the structure of 1 remained intact during the complexation assay as judged by UHPLC and mass analyses.
General procedures for menaquinone complexation assay. To the bead-linked lysocin E analogues in LibraTube was added a solution of menaquinone-4 (2) in MeOH (10 mM, 1.0 mL/1000 beads). The mixture was incubated at room temperature for 12 h. A suspension of the beads in MeOH (200 beads/200 µL) was transferred to a 2.0 mL microtube.
Each bead in the microtube was transferred to each well of a 96-well filtration plate (278011, Thermo Fisher Scientific, 1 bead/well) with the solution of 2 (20 µL/bead) using a micropipette. To each well was added MeOH (400 µL), and the beads was filtered by gravity flow (× 3). The beads in the plate were dried under vacuum for 0.5–1 h. The dried beads were transferred to a 96-well PCR plate (652270, Greiner bio-one, 1 bead/well) with MeOH (20 µL/well) using a micropipette. The solution was removed under a stream of Ar at 40 °C to give the 2-bound bead-linked peptides.
To the 2-bound bead-linked peptides in the plate was added n-BuOH (30 µL/well) at room temperature .
The suspension was incubated at 50 °C for 1 h. The resultant mixture in the plate was centrifuged at 3500 × g at room temperature for 10 sec . The supernatant in each well was transferred to the corresponding well of a black polystyrene flat -bottom 96-well plate (655086, Greiner bio-one). The solution was concentrated under a stream of Ar at 40 °C to give the eluted 2.
To the above eluted 2 in the plate was added n-BuOH (25 µL/well) at room temperature. The plate was vortexed at room temperature for 10 min. To the resultant solution was added a solution of NaBH4 in n-BuOH (1.0 mM, 25 µL/well). The plate was vortexed at room temperature for 10 min. The fluorescence of menahydroquinone (2H, Ex. 250 nm/Em. 430 nm) of each well was measured at room temperature every 3 min (0, 3, and 6 min) on Gemini EM microplate reader (Molecular Devices) . The three fluorescence intensities of each bead were averaged and plotted against the bead number.
Evaluation of menaquinone complexation activities of the selected bead-linked peptides. Bead-linked peptides 30, BLP1, and BLP2 were synthesized according to the above described procedures (loading rate:
0.222 mmol/g). The bead-linked peptides were subjected to the MK complexation assay described above.
The obtained fluorescent intensities of 2H (arbitrary unit) were 1026 ± 64 for 30, 396 ± 27 for BLP1, 72.9 ± 2.0 for BLP2, and 41.6 ± 0.1 for background adsorption (no bead), respectively (Supplementary Figure 3).

[3] abbreviates: 30 min, room temperature, mean ± SD of three independent experiments, read-out: EC50 PC/PG.
Setting [4] is: PC/PG LUVs, 1st experiment, read-out: EC50 PC/PG 1st.
The mark [5] stands for this setting: PC/PG LUVs, 2nd experiment, read-out: EC50 PC/PG 2nd.
[6] abbreviates: PC/PG LUVs, 3rd experiment, read-out: EC50 PC/PG 3rd.

In the case of `CC[C@H](C)[C@@H]1NC(=O)[C@@H](Cc2c[nH]c3ccccc23)NC(=O)[C@@H](CCC(N)=O)NC(=O)[C@H](CCC(=O)O)NC(=O)[C@@H](CCCNC(=N)N)NC(=O)[C@H](CC(C)C)NC(=O)[C@@H](Cc2ccccc2)N(C)C(=O)CNC(=O)[C@H](CO)NC(=O)[C@@H](CCCNC(=N)N)NC(=O)[C@@H](NC(=O)C[C@H](O)CC(C)C)[C@@H](C)OC(=O)[C@H]([C@@H](C)O)NC1=O` [Peptide 1, Lysocin E] ({Hexanoyl(3R-OH,5-Me)}-T[dR]SG[dNMeF]L[dR]E[dQ][dW]IT; ester 1-C), the EC50 was determined as 0.559 µM in test [1] (setting [3]), 0.527 µM in test [1] (setting [4]), 0.689 µM in test [1] (setting [5]) and 0.46 µM in test [1] (setting [6]). Besides, the “fluorescence intensity of 2H” value in test [2] came out at 1369.78 a.u.

Consider `CC[C@H](C)[C@@H]1NC(=O)[C@@H](Cc2c[nH]c3ccccc23)NC(=O)[C@@H](CCC(N)=O)NC(=O)[C@H](CCC(=O)O)NC(=O)[C@@H](CCCNC(=N)N)NC(=O)[C@H](CC(C)C)NC(=O)[C@@H](Cc2ccccc2)N(C)C(=O)CNC(=O)[C@H](C)NC(=O)[C@@H](CCCNC(=N)N)NC(=O)[C@@H](NC(=O)C[C@H](O)CC(C)C)[C@@H](C)OC(=O)[C@H]([C@@H](C)O)NC1=O` [Peptide A1] ({Hexanoyl(3R-OH,5-Me)}-T[dR]AG[dNMeF]L[dR]E[dQ][dW]IT; ester 1-C), for which the EC50 in test [1] (setting [3]) is 0.975 ± 0.195 µM; in test [1] (setting [4]) it was 1.08 µM; in test [1] (setting [5]) it was 1.09 µM; in test [1] (setting [6]), 0.75 µM. Further, the “fluorescence intensity of 2H” value in test [2] worked out at 1237.12 a.u.

As for `CC[C@H](C)[C@@H]1NC(=O)[C@@H](Cc2c[nH]c3ccccc23)NC(=O)[C@@H](C(C)C)NC(=O)[C@H](CCC(=O)O)NC(=O)[C@@H](CCCNC(=N)N)NC(=O)[C@H](CC(C)C)NC(=O)[C@@H](Cc2ccccc2)N(C)C(=O)CNC(=O)[C@H](C)NC(=O)[C@@H](CCCNC(=N)N)NC(=O)[C@@H](NC(=O)C[C@H](O)CC(C)C)[C@@H](C)OC(=O)[C@H]([C@@H](C)O)NC1=O` [Peptide A2] ({Hexanoyl(3R-OH,5-Me)}-T[dR]AG[dNMeF]L[dR]E[dV][dW]IT; ester 1-C), the EC50 in test [1] (setting [3]) was 0.714 ± 0.188 µM; in test [1] (setting [4]) it was 0.917 µM; in test [1] (setting [5]) it was 0.68 µM; in test [1] (setting [6]) it was 0.545 µM. Further, the “fluorescence intensity of 2H” value in test [2] is 1152.24 a.u.

In the case of `CC[C@H](C)[C@@H]1NC(=O)[C@@H](Cc2c[nH]c3ccccc23)NC(=O)[C@@H](C(C)C)NC(=O)[C@H](CCC(=O)O)NC(=O)[C@@H](CCCNC(=N)N)NC(=O)[C@H](CC(C)C)NC(=O)[C@@H](Cc2ccccc2)N(C)C(=O)CNC(=O)[C@H](CCCCN)NC(=O)[C@@H](CCCNC(=N)N)NC(=O)[C@@H](NC(=O)C[C@H](O)CC(C)C)[C@@H](C)OC(=O)[C@H]([C@@H](C)O)NC1=O` [Peptide A3] ({Hexanoyl(3R-OH,5-Me)}-T[dR]KG[dNMeF]L[dR]E[dV][dW]IT; ester 1-C), the EC50 in test [1] (setting [3]) stood at 0.822 ± 0.234 µM; in test [1] (setting [4]) it was 1.01 µM; in test [1] (setting [5]) it was 0.9 µM; in test [1] (setting [6]) it was 0.559 µM. Besides, the “fluorescence intensity of 2H” value in test [2] (listed as KLVI) was 1439.45 a.u. and 1379.53 a.u.

Take `CC[C@H](C)[C@@H]1NC(=O)[C@@H](Cc2c[nH]c3ccccc23)NC(=O)[C@@H](CCCN)NC(=O)[C@H](CCC(=O)O)NC(=O)[C@@H](CCCNC(=N)N)NC(=O)[C@H](CC(C)C)NC(=O)[C@@H](Cc2ccccc2)N(C)C(=O)CNC(=O)[C@H](Cc2ccc(O)cc2)NC(=O)[C@@H](CCCNC(=N)N)NC(=O)[C@@H](NC(=O)C[C@H](O)CC(C)C)[C@@H](C)OC(=O)[C@H]([C@@H](C)O)NC1=O` [Peptide A7] ({Hexanoyl(3R-OH,5-Me)}-T[dR]YG[dNMeF]L[dR]E[dOrn][dW]IT; ester 1-C): the EC50 in test [1] (setting [3]) was 1.12 ± 0.2 µM; in test [1] (setting [4]), 1.32 µM; in test [1] (setting [5]), 1.12 µM; in test [1] (setting [6]) it was 0.923 µM. Besides, the “fluorescence intensity of 2H” value in test [2] (listed as YLOI) is 1035.66 a.u. and 1123.94 a.u.

For the molecule `CC[C@H](C)[C@@H]1NC(=O)[C@@H](Cc2c[nH]c3ccccc23)NC(=O)[C@@H](CCCN)NC(=O)[C@H](CCC(=O)O)NC(=O)[C@@H](CCCNC(=N)N)NC(=O)[C@H](CC(C)C)NC(=O)[C@@H](Cc2ccccc2)N(C)C(=O)CNC(=O)[C@H](CC(N)=O)NC(=O)[C@@H](CCCNC(=N)N)NC(=O)[C@@H](NC(=O)C[C@H](O)CC(C)C)[C@@H](C)OC(=O)[C@H]([C@@H](C)O)NC1=O` [Peptide A14] ({Hexanoyl(3R-OH,5-Me)}-T[dR]NG[dNMeF]L[dR]E[dOrn][dW]IT; ester 1-C), the EC50 in test [1] (setting [3]), in test [1] (setting [4]), in test [1] (setting [5]) and in test [1] (setting [6]) was greater than 1.5 µM in each case. In test [2], the “fluorescence intensity of 2H” value came out at 1470.92 a.u.

Take `CC(C)C[C@@H](O)CC(=O)N[C@@H]1C(=O)N[C@H](CCCNC(=N)N)C(=O)N[C@@H](C)C(=O)NCC(=O)N(C)[C@H](Cc2ccccc2)C(=O)N[C@@H](CC(C)C)C(=O)N[C@H](CCCNC(=N)N)C(=O)N[C@@H](CCC(=O)O)C(=O)N[C@H](Cc2ccc(O)cc2)C(=O)N[C@H](Cc2c[nH]c3ccccc23)C(=O)N[C@@H](Cc2ccc(O)cc2)C(=O)N[C@@H]([C@@H](C)O)C(=O)O[C@@H]1C` [Peptide A15] ({Hexanoyl(3R-OH,5-Me)}-T[dR]AG[dNMeF]L[dR]E[dY][dW]YT; ester 1-C): the EC50 turned out to be 1.01 ± 0.21 µM in test [1] (setting [3]), 1.26 µM in test [1] (setting [4]), 0.889 µM in test [1] (setting [5]) and 0.895 µM in test [1] (setting [6]). In addition, the “fluorescence intensity of 2H” value in test [2] turned out to be 1125.25 a.u.
